Reference: patent US20250129028A1, “COMPOUNDS AND METHODS FOR YAP/TEAD MODULATION AND INDICATIONS THEREFOR” (Opna Bio SA, priority 2022, published 2025)

Tested on: TEAD-dependent transcription
Assay: TEAD-dependent transcription cell-based reporter assay (MSTO-211H+12XGTIIC luciferase)
Parameters: species or system human
Conditions: Homo sapiens; MSTO-211H+12XGTIIC cell line, luciferase signal normalized to cell viability, 24 hours compound incubation; read-out: MSTO-211H GMean IC50 (uM) Cell Assay Reporter Cell Variant: TEAD
Outline: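 MSTO-211H mesothelioma cells stably carrying a 12xGTIIC TEAD-response-element luciferase reporter, treated with serial compound dilutions for 24 h at 37 °C. Luminescence normalized to CellTiter-Fluor viability signal; % inhibition versus DMSO and 20 μM K-975 controls, IC50 by nonlinear regression.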

Work on `C=CC(=O)N1CCC(C(=O)N2CCc3ccc(Oc4ccc(C(F)(F)F)c(F)c4)cc3C2)C1` (centres unmarked) [P-0119, 1-(3-(7-(3-fluoro-4-(trifluoromethyl)phen-oxy)-1,2,3,4-tetrahydro-isoquinoline-2-carbon-yl)pyrrolidin-1-yl)prop-2-en-1-one] yielded an IC50 of 0.001 to 10 µM.
`C=CC(=O)N1CCCC(C(=O)N2CCc3ccc(Oc4ccc(C(F)(F)F)c(F)c4)cc3C2)C1` (centres unmarked) [P-0120, 1-(3-(7-(3-fluoro-4-(trifluoromethyl)phen-oxy)-1,2,3,4-tetrahydro-isoquinoline-2-carbon-yl)piperidin-1-yl)prop-2-en-1-one] showed an IC50 of 0.001 to 10 µM.
`C=CC(=O)N1CCC(C(=O)N2CCc3ccc(Oc4ccc(C(F)(F)F)c(F)c4)cc3C2)CC1` [P-0121, 1-(4-(7-(3-fluoro-4-(trifluoromethyl)phen-oxy)-1,2,3,4-tetrahydro-isoquinoline-2-carbon-yl)piperidin-1-yl)prop-2-en-1-one] gave an IC50 of 0.001 to 10 µM.
`O=C(c1cnco1)N1CCc2ccc(Oc3ccc(C(F)(F)F)cc3)cc2C1` [P-0122, oxazol-5-yl(7-(4-(trifluoromethyl)phen-oxy)-3,4-dihydroisoquin-olin-2(1H)-yl)methanone] was tested, and the IC50 was 0.001 to 10 µM.
With `NS(=O)(=O)CCC(=O)N1CCc2ccc(Oc3ccc(C(F)(F)F)c(F)c3)cc2C1` [P-0123, 3-(7-(3-fluoro-4-(trifluoromethyl)phen-oxy)-3,4-dihydroisoquin-olin-2(1H)-yl)-3-oxopro-pane-1-sulfonamide] the IC50 was 0.001 to 10 µM.
In the case of `NC(=O)c1cc(C(=O)N2CCc3ccc(Oc4ccc(C(F)(F)F)cc4)cc3C2)n[nH]1` [P-0124, 3-(7-(4-(trifluorometh-yl)phenoxy)-1,2,3,4-tetrahydroisoquinoline-2-carbonyl)-1H-pyrazole-5-carboxamide], the IC50 was 0.001 to 10 µM.
For `NS(=O)(=O)CC(=O)N1CCc2ccc(Oc3ccc(C(F)(F)F)cc3)cc2C1` [P-0125, 2-oxo-2-(7-(4-(trifluoro-methyl)phenoxy)-3,4-dihydroisoquinolin-2(1H)-yl)ethane-1-sul-fonamide], the IC50 was 0.001 to 10 µM.
Work on `NS(=O)(=O)c1ccc(C(=O)N2CCc3ccc(Oc4ccc(C(F)(F)F)cc4)cc3C2)cc1` [P-0126, 4-(7-(4-(trifluorometh-yl)phenoxy)-1,2,3,4-tetrahydroisoquinoline-2-carbonyl)benzene-sulfonamide] yielded an IC50 of 0.001 to 10 µM.
With `NC(=O)c1ccc(C(=O)N2CCc3ccc(Oc4ccc(C(F)(F)F)cc4)cc3C2)cn1` [P-0127, 5-(7-(4-(trifluorometh-yl)phenoxy)-1,2,3,4-tetrahydroisoquinoline-2-carbonyl)picolinamide] the IC50 was 0.001 to 10 µM.
For `CNS(=O)(=O)NCC(=O)N1CCc2ccc(Oc3ccc(C(F)(F)F)cc3)cc2C1` [P-0128, N-methyl-N′-(2-(7-(4-(trifluoromethyl)phen-oxy)-3,4-dihydroisoquin-olin-2(1H)-yl)-2-oxoeth-yl)sulfamide], the IC50 was 0.001 to 10 µM.
`O=C1CCC(C(=O)N2CCc3ccc(Oc4ccc(C(F)(F)F)cc4)cc3C2)CN1` (centres unmarked) [P-0129, 5-(7-(4-(trifluoromethyl)-phenoxy)-1,2,3,4-tetra-hydroisoquinoline-2-carbonyl)piperidin-2-one] gave an IC50 of 0.001 to 10 µM.
In the case of `O=C1CC(C(=O)N2CCc3ccc(Oc4ccc(C(F)(F)F)cc4)cc3C2)CCN1` (centres unmarked) [P-0130, 4-(7-(4-(trifluoromethyl)-phenoxy)-1,2,3,4-tetra-hydroisoquinoline-2-carbonyl)piperidin-2-one], the IC50 was 0.001 to 10 µM.
In the case of `CC(C)(C)OC(=O)NCC(=O)N1CCc2ccc(Oc3ccc(C(F)(F)F)cc3)cc2C1` [P-0131, tert-butyl (2-oxo-2-(7-(4-(trifluoromethyl)phen-oxy)-3,4-dihydroisoquin-olin-2(1H)-yl)ethyl)-carbamate], the IC50 was 0.001 to 10 µM.
In the case of `O=C1CCC(CC(=O)N2CCc3ccc(Oc4ccc(C(F)(F)F)cc4)cc3C2)CN1` (centres unmarked) [P-0132, 5-(2-oxo-2-(7-(4-(trifluoromethyl)phen-oxy)-3,4-dihydroisoquin-olin-2(1H)-yl)ethyl)piper-idin-2-one], the IC50 was 0.001 to 10 µM.
Compound `O=C(Cc1cc[nH]n1)N1CCc2ccc(Oc3ccc(C(F)(F)F)cc3)cc2C1` [P-0133, 2-(1H-pyrazol-3-yl)-1-(7-(4-(trifluoromethyl)-phenoxy)-3,4-dihydroiso-quinolin-2(1H)-yl)ethan-1-one] has an IC50 of 0.001 to 10 µM.
`N#Cc1nc(N2CCc3ccc(Oc4ccc(C(F)(F)F)cc4)cc3C2)cs1` [P-0134, 4-(7-(4-(trifluorometh-yl)phenoxy)-3,4-dihydro-isoquinolin-2(1H)-yl)thi-azole-2-carbonitrile] was tested, and the IC50 was 0.001 to 10 µM.
Work on `CC(NS(C)(=O)=O)C(=O)N1CCc2ccc(Oc3ccc(C(F)(F)F)cc3)cc2C1` (centres unmarked) [P-0135, N-(1-oxo-1-(7-(4-(trifluoromethyl)phen-oxy)-3,4-dihydroisoquin-olin-2(1H)-yl)propan-2-yl)methanesulfonamide] yielded an IC50 of 0.001 to 10 µM.
In the case of `O=C(NC1(C(=O)N2CCc3ccc(Oc4ccc(C(F)(F)F)cc4)cc3C2)CC1)C(F)(F)F` [P-0136, 2,2,2-trifluoro-N-(1-(7-(4-(trifluoromethyl)phen-oxy)-1,2,3,4-tetrahydro-isoquinoline-2-carbonyl)-cyclopropyl)acetamide], the IC50 was 0.001 to 10 µM.
In the case of `Nc1nc(CC(=O)N2CCc3ccc(Oc4ccc(C(F)(F)F)cc4)cc3C2)cs1` [P-0137, 2-(2-aminothiazol-4-yl)-1-(7-(4-(trifluoromethyl)-phenoxy)-3,4-dihydroiso-quinolin-2(1H)-yl)ethan-1-one], the IC50 was 0.001 to 10 µM.
`CN1C(=O)SC(CC(=O)N2CCc3ccc(Oc4ccc(C(F)(F)F)c(F)c4)cc3C2)C1=O` (centres unmarked) [P-0138, 5-(2-(7-(3-fluoro-4-(trifluoromethyl)phen-oxy)-3,4-dihydroisoquin-olin-2(1H)-yl)-2-oxoeth-yl)-3-methylthiazolidine-2,4-dione] was tested, and the IC50 was 0.001 to 10 µM.
`O=C(Cc1c[nH]c(=O)[nH]c1=O)N1CCc2ccc(Oc3ccc(C(F)(F)F)c(F)c3)cc2C1` [P-0139, 5-(2-(7-(3-fluoro-4-(trifluoromethyl)phen-oxy)-3,4-dihydroisoquin-olin-2(1H)-yl)-2-oxoeth-yl)pyrimidine-2,4(1H, 3H)-dione] showed an IC50 of 0.001 to 10 µM.
With `O=C1N[C@@H](CC(=O)N2CCc3ccc(Oc4ccc(C(F)(F)F)c(F)c4)cc3C2)CO1` [P-0140, (S)-4-(2-(7-(3-fluoro-4-(trifluoromethyl)phen-oxy)-3,4-dihydroisoquin-olin-2(1H)-yl)-2-oxoeth-yl)oxazolidin-2-one] the IC50 was 0.001 to 10 µM.
`O=C(CCS(=O)(=O)C(F)(F)F)N1CCc2ccc(Oc3ccc(C(F)(F)F)c(F)c3)cc2C1` [P-0141, 1-(7-(3-fluoro-4-(trifluoromethyl)phen-oxy)-3,4-dihydroiso-quinolin-2(1H)-yl)-3-((trifluoromethyl)sulfon-yl)propan-1-one] gave an IC50 of 0.001 to 10 µM.
`O=C1NCCC1CC(=O)N1CCc2ccc(Oc3ccc(C(F)(F)F)c(F)c3)cc2C1` (centres unmarked) [P-0142, 3-(2-(7-(3-fluoro-4-(trifluoromethyl)phen-oxy)-3,4-dihydroisoquin-olin-2(1H)-yl)-2-oxoeth-yl)pyrrolidin-2-one] gave an IC50 of 0.001 to 10 µM.
With `O=C(C1CCS(=O)(=O)CC1)N1CCc2ccc(Oc3ccc(C(F)(F)F)c(F)c3)cc2C1` [P-0143, (1,1-dioxidotetrahydro-2H-thiopyran-4-yl)(7-(3-fluoro-4-(trifluorometh-yl)phenoxy)-3,4-dihydro-isoquinolin-2(1H)-yl)-methanone] the IC50 was 0.001 to 10 µM.
With `O=C(C1CNC1)N1CCc2ccc(Oc3ccc(C(F)(F)F)c(F)c3)cc2C1` [P-0144, azetidin-3-yl(7-(3-fluoro-4-(trifluoromethyl)phen-oxy)-3,4-dihydroisoquin-olin-2(1H)-yl)methanone] the IC50 was 0.001 to 10 µM.
Work on `O=C(C1CCNC1)N1CCc2ccc(Oc3ccc(C(F)(F)F)c(F)c3)cc2C1` (centres unmarked) [P-0145, (7-(3-fluoro-4-(trifluoro-methyl)phenoxy)-3,4-dihydroisoquinolin-2(1H)-yl)(pyrrolidin-3-yl)methanone] yielded an IC50 of 0.001 to 10 µM.
`O=C(C1CCCNC1)N1CCc2ccc(Oc3ccc(C(F)(F)F)c(F)c3)cc2C1` (centres unmarked) [P-0146, (7-(3-fluoro-4-(trifluoro-methyl)phenoxy)-3,4-dihydroisoquinolin-2(1H)-yl)(piperidin-3-yl)methanone] showed an IC50 of 0.001 to 10 µM.
`O=C(C1CCNCC1)N1CCc2ccc(Oc3ccc(C(F)(F)F)c(F)c3)cc2C1` [P-0147, (7-(3-fluoro-4-(trifluoro-methyl)phenoxy)-3,4-dihydroisoquinolin-2(1H)-yl)(piperidin-4-yl)-methanone] showed an IC50 of 0.001 to 10 µM.
Work on `O=C(Cc1nnn[nH]1)N1CCc2ccc(Oc3ccc(C(F)(F)F)c(F)c3)cc2C1` [P-0148, 1-(7-(3-fluoro-4-(trifluoromethyl)phen-oxy)-3,4-dihydroisoquin-olin-2(1H)-yl)-2-(1H-tetrazol-5-yl)ethan-1-one] yielded an IC50 of 0.001 to 10 µM.
Work on `O=C(Cc1ccn[nH]1)N1CCc2ccc(Oc3ccc(C(F)(F)F)c(F)c3)cc2C1` [P-0149, 1-(7-(3-fluoro-4-(trifluoromethyl)phen-oxy)-3,4-dihydroiso-quinolin-2(1H)-yl)-2-(1H-pyrazol-5-yl)-ethan-1-one] yielded an IC50 of 0.001 to 10 µM.
Work on `O=C(Cc1cnc[nH]1)N1CCc2ccc(Oc3ccc(C(F)(F)F)c(F)c3)cc2C1` [P-0150, 1-(7-(3-fluoro-4-(trifluoromethyl)phen-oxy)-3,4-dihydroisoquin-olin-2(1H)-yl)-2-(1H-imidazol-5-yl)ethan-1-one] yielded an IC50 of 0.001 to 10 µM.
Compound `O=C(CCc1cnc[nH]1)N1CCc2ccc(Oc3ccc(C(F)(F)F)c(F)c3)cc2C1` [P-0151, 1-(7-(3-fluoro-4-(trifluoromethyl)phen-oxy)-3,4-dihydroisoquin-olin-2(1H)-yl)-3-(1H-imidazol-5-yl)propan-1-one] has an IC50 of 0.001 to 10 µM.
Work on `O=C(Cc1ncc[nH]1)N1CCc2ccc(Oc3ccc(C(F)(F)F)c(F)c3)cc2C1` [P-0152, 1-(7-(3-fluoro-4-(trifluoromethyl)phen-oxy)-3,4-dihydroisoquin-olin-2(1H)-yl)-2-(1H-imidazol-2-yl)ethan-1-one] yielded an IC50 of 0.001 to 10 µM.
`O=C(CCn1cncn1)N1CCc2ccc(Oc3ccc(C(F)(F)F)c(F)c3)cc2C1` [P-0153, 1-(7-(3-fluoro-4-(trifluoromethyl)phen-oxy)-3,4-dihydroisoquin-olin-2(1H)-yl)-3-(1H-1,2,4-triazol-1-yl)propan-1-one] was tested, and the IC50 was 0.001 to 10 µM.
